Measurements as given in patent US10220040B2, “Compounds, compositions and methods useful for cholesterol mobilization” (Cerenis Therapeutics Holding SA, priority 2010, dated 2019).

Tested on: apoE −/− mice
Test: ApoE−/− mice flow cessation model (ligated carotid, Western diet)
Type: in vivo
Description: FIG. 17A-J: Dose-response effect of P2Y13 agonist on atherosclerotic plaque progression in ApoE^−/− mice. ApoE^−/− mice (n=7) were ligated on the upper part of the left carotids. On the day of the surgery the animals were placed on a Western diet and given an oral gavage of vehicle or increasing doses of Compound IIa. Ligated carotids were lipid extracted in 2:1 chloroform/methanol. FIG. 17A: the concentrations in unesterified cholesterol (dark bars) and total cholesterol (superimposed gray bars) were measured by HPLC. FIG. 17E and FIG. 17H: hematoxylin eosin staining of longitudinal sections of ApoE^−/− mice carotids. FIG. 17F and FIG. 17I: Oil Red O staining of longitudinal sections of ApoE^−/− mice carotids. FIG. 17G and FIG. 17J: CD-68 antibody staining of longitudinal sections of ApoE^−/− mice carotids. FIG. 17B: quantification of the intima/media ratio (n=10). FIG. 17C: Oil Red O positive staining quantification (n=10). FIG. 17D: CD68 antibody staining quantification (n=10). The mice were dosed for 2 weeks with vehicle (FIG. 17E, FIG. 17F and FIG. 17G) or Compound IIa at 100 μg/kg (FIG. 17H, FIG. 17I and FIG. 17J).
ApoE^−/− mice “flow cessation model”: Left carotid of apoE^−/− mice were ligatured and placed on Western diet. These mice were given Compound IIa once a day at 100 μg/kg (0.5% CMC, 0.2% Tween80) for 2 weeks.
The left carotid fixed in formalin was embedded in OCT and frozen at −20° C. Four step frozen sections of 50 μm separated one from the other were processed and stained with Oil red O (ORO). Macrophages were detected using primary rat monoclonal anti CD-68 antibody (Abcam).
The effect of the stimulation of the P2Y13r pathway by the agonists on the atherosclerotic plaque lesions in apoE −/− mice that are very susceptible to develop atherosclerosis on a short term Western (i.e. high-cholesterol) diet was investigated. […] The quantification of plaque components by histo-pathological analysis of the treated carotids with hematoxylin-eosin (FIG. 17B, E, H), oil-red O staining (FIG. 17C, F, I) and with CD68 antibody (specific of the macrophages), (FIG. 17D, G, J) further confirmed this observation.

CN(C)c1ncc(CN2CCC(c3cc(O)nc(N4CCOCC4)n3)CC2)cn1 [Compound IIa, 6-[1-(2-Dimethylaminopyrimidin-5-ylmethyl)-piperidin-4-yl]-2-morpholin-4-yl-pyrimidin-4-ol]
cholesterol deposit in non-inflammatory right carotids (100 μg/kg, vehicle 18.2+/−3.6): 7.5+/−3.4 nmole/mg of tissue | progression of the atherosclerosis lesions (lesion cholesterol content) compared to control animals (oral dosing for 2 weeks along with high-cholesterol diet, ligated carotid): dose-dependent inhibition | inhibition of the atherosclerosis progression in mice (summary statement): dramatic effect | lipid content of the carotids (staining) (treated animals, 2 weeks): decrease
